Source: patent US20080255031A1, “METHOD FOR ENHANCING INSULIN SECRETION” (priority 2007, published 2008)
“And” between values parts separate entries of the source, which are not always exact repeats. Equal entries are not always repeated. Where two headings read alike, the source gives them in different places.

Experiments:
β1-adrenergic receptors = target: T1, β1-adrenergic receptors (Rattus norvegicus, UniProt P18090); assay: Radioligand binding to β1-ARs, membranes from rat ventricle
T1 construct: membranes prepared from rat ventricle and guinea-pig lung, respectively; from tissue; host or cells: rat ventricle membranes
Description: (§1) The objective of this example is to present the affinities and potencies of ranolazine and its S- and R-enantiomers for β1 and β2-adrenergic receptors (ARs) in various tissues and cell lines. Using radioligand binding techniques, competition of the compounds for specific radioligand binding to β1- and β2-ARs was determined using membranes prepared from rat ventricle and guinea-pig lung, respectively.

β2-adrenergic receptors = target: T2, β2-adrenergic receptors (Cavia porcellus, UniProt Q8K4Z4); assay: Radioligand binding to β2-ARs, membranes from guinea-pig lung
T2 construct: membranes prepared from rat ventricle and guinea-pig lung, respectively; from tissue; host or cells: guinea-pig lung membranes
Description: as §1

normal SD rats = assay: Insulin levels during intravenous glucose tolerance test (IVGTT) in normal SD rats; type: in vivo, rat; settings: 15 mg/kg, 30 minutes prior to glucose
Description: Each rat was subjected to an IVGTT according to the method of […] et al, Metabolism 42, (1):1-6, 1993. The rats were fasted overnight before administration of the test. One group of eleven rats was given only saline prior to glucose load while the second group of seven rats was given ranolazine prior to glucose load. Glucose was administered at time zero while ranolazine was administered 30 minutes prior to glucose at a dose of 15 mg/kg of body weight. Then, the insulin concentrations in the blood were measured at -30, 0, 2, 4, 7, 15 and 30 minutes. […] The procedure used was that described in Example 2 above.

β2-ARs = target: T3, β2-ARs (Mesocricetus auratus, UniProt P04274); assay: Isoproterenol-induced cAMP accumulation in DDT1 MF-2 hamster smooth muscle cells (mostly β2-ARs); type: cell-based; settings: read-out: KB (Schild), β2-ARs
T3 construct: DDT1 MF-2 hamster smooth muscles cells (expressing mostly β2-ARs); endogenous in cells; host or cells: DDT1 MF-2 hamster smooth muscle cells
Description: (§2) The effect of ranolazine and its S- and R-enantiomers on cAMP accumulations in rat C6 glioma cells (expressing mostly β1-ARS) and DDT1 MF-2 hamster smooth muscles cells (expressing mostly β2-ARs) were determined. […] However, in the presence of the compounds, the concentration-response curve for the isoproterenol-induced increase in cAMP was shifted to the right with no apparent reduction in the maximal responses, indication that these compounds are competitive antagonists of β1- and β2-ARs. Using the Schild equations for multiple concentrations of the antagonist (ranolazine) or for a single concentration of the enantiomers, the KB values for ranolazine and its S- and R-enantiomers were 9.7, 8.0, and >50 μM (for β1-ARS) and 12.2, 9.0, and >50 μM (for β2-ARs). In summary, ranolazine and its S-enantiomer are competitive antagonists of β1 and β2-ARS with the S-enantiomer having the highest binding affinities of all.

β1-ARs = target: T4, β1-ARs (Rattus norvegicus, UniProt P18090); assay: Isoproterenol-induced cAMP accumulation in rat C6 glioma cells (mostly β1-ARs); type: cell-based; settings: read-out: KB (Schild), β1-ARs
T4 construct: rat C6 glioma cells (expressing mostly β1-ARS); endogenous in cells; host or cells: rat C6 glioma cells
Description: as §2

[1] = test system: Female rabbit isolated hearts; assay: LV monophasic action potential duration (MAPD90) in female rabbit isolated hearts; settings: for EC50: Oryctolagus cuniculus
Description: The objective of this example is to present the effects of ranolazine and the R- and S-enantiomers of ranolazine on left ventricular monophasic action potential duration (LV MAPD), regional LV dispersion of MAPD (apex-base) and arrhythmogenesis. Female rabbit isolated hearts were perfused with modified K-H solution and paced at a constant rate of 1 Hz after surgical-induced complete atrioventricular block. LV MAPs from the base and apex were measured using contact MAP electrodes.
Each animal was sedated using 6 mg/kg xylazine i.m. and 40 mg/kg ketamine i.m. and then anesthetized by a “cocktail” (ketamine 15 mg/kg+xylazine 4 mg/kg in 1.5 mL saline) i.v. via the marginal ear vein. The thorax was quickly opened. The heart was excised and placed in a modified Krebs-Henseleit (K-H) solution at room temperature. The K-H solution contained (in mmol/L): NaCl 118, KCl 2.8, KH2PO4 1.2, CaCl2 2.5, MgSO4 0.5, pyruvate 2.0, glucose 5.5, Na2EDTA 0.57 and NaHCO3 25. The solution was continuously gassed with 95% O2 and 5% CO2, and its pH was adjusted to 7.4. The aorta was rapidly catheterized and the heart was perfused by the method of Langendorff with K-H solution warmed to 36-36.5° C. at a rate of 20 mL/min with a roller pump (Gilson Minipuls3, Middleton, Wis.). Perfusion pressure was measured (with a Biopac MP 150 pressure transducer, Goleta, Calif.) from a side port of the aortic catheter. To facilitate exit of fluid from the chamber of the left ventricle (LV), the leaflets of the mitral valve were trimmed with fine spring-handled scissors. The right atrial wall was partially removed for AV node ablation to block AV conduction.
Complete AV block was induced by surgical ablation (heated) of AV nodal area. […] A bipolar Teflon-coated electrode was placed on the right ventricular septum to pace the heart. Electrical stimuli 3 msec in width and 3-fold threshold amplitude were delivered to the pacing electrode at a frequency of 1 Hz using a Grass S48 stimulator (W. Warwick, R.I.).
After initiation of ventricular pacing, a 30-40 min delay was allowed for heart rhythm and perfusion pressure to achieve a steady state, an essential experimental condition for recording a good quality monophasic action potential (MAP).
Monophasic action potentials (MAP) and ECG electrodes from Harvard Apparatus Inc. (Holliston, Mass.) were used to record left ventricular MAPs and bipolar ECG. Two MAP electrodes were placed on the epicardial ventricular free wall below the level of atrial-ventricular valves to record basal MAP and apex to record apical MAP signals, respectively. MAP electrodes were pressure-contact Ag—AgCl electrodes attached to a circular holder with springs to maintain the electrodes' contact with the LV epicardial surface. […] Signals were saved on a computer hard disk for subsequent analysis. Bipolar electrocardiogram (ECG) was generated using an isolated-heart ECG apparatus (Harvard Apparatus, Holliston, Mass.) attached to Biopac amplifier system. Coronary perfusion pressure was measured using a pressure transducer (Biopac or PowerLab pressure measuring system). […] All signals were saved on a computer hard disk for subsequent analysis.
Original MAP profiles of 3-5 consecutive beats were superimposed to get one average signal using computer software (Biopac, Goleta, Calif.) and then transferred into Microsoft Excel software and plotted to measure the duration of the MAP at the level at which repolarization is 90% completed (MAPD90).

CYP2D6 = CYP2D6 (Homo sapiens, UniProt P10635); assay: biochemical
Description: The incubation mixture contained potassium phosphate, pH 7.2 (final concentration=100 mM), magnesium chloride (5 mM), NADPH (1 mM), CYP2D6-specific marker substrate (bufuralol, 25 μM), (R) or (S)-ranolazine (10, 25, 100, 250, 1000 μM), or known CYP2D6 inhibitor (quinidine, 5 μM), and human liver microsomal (HLM) proteins. All reagents except NADPH were combined and preincubated at 37° C. for 2-3 min. Reactions were initiated by addition of NADPH and incubated 20 minutes. The CYP2D6 marker reaction, bufuralol 1-hydroxylation, was monitored. A known CYP2D6 inhibitor, quinidine, was included as a positive control. The negative control samples consisted of all components but not ranolazine. Incubations were run in triplicate for each condition except for positive controls, which were carried out in duplicate.

[2] = paced at 1 Hz, site not stated, read-out: EC50 to prolong LV MAPD90

T2 sequence (Q8K4Z4 whole entry): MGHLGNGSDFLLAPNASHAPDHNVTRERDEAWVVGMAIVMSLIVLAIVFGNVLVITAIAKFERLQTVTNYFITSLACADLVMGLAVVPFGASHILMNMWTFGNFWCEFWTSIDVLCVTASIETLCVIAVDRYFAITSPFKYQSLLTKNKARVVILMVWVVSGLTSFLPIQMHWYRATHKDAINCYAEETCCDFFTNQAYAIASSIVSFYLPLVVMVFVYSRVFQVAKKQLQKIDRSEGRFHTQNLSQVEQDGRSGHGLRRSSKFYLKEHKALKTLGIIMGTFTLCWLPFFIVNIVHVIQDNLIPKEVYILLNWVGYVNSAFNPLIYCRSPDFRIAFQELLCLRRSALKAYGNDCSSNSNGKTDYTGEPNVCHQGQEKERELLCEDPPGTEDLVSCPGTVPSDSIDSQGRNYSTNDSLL
T3 sequence (P04274 whole entry): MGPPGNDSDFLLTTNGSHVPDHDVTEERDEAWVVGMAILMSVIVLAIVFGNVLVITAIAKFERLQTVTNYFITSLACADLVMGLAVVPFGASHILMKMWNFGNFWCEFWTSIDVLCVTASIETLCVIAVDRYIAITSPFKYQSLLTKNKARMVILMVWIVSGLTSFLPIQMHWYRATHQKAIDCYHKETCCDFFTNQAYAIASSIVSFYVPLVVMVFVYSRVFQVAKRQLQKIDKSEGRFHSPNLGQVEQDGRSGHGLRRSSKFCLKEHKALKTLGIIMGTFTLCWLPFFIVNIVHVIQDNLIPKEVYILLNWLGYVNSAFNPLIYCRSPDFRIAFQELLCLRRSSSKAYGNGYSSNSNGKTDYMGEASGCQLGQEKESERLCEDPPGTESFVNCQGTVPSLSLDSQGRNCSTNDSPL
T1 sequence (P18090 whole entry): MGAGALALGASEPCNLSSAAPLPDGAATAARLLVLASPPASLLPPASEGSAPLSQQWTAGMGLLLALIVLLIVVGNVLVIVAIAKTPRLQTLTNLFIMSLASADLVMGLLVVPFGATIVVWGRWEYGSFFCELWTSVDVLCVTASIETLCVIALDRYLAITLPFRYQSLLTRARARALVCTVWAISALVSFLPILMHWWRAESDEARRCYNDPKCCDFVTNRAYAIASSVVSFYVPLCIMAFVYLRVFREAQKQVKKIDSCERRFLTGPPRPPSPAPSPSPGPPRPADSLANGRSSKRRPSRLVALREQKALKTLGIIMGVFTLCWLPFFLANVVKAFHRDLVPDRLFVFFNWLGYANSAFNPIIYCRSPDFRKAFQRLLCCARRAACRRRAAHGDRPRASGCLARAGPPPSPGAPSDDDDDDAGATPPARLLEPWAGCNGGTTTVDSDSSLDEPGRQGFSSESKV
T4 sequence (P18090 whole entry): as above
CYP2D6, sequence (P10635 whole entry): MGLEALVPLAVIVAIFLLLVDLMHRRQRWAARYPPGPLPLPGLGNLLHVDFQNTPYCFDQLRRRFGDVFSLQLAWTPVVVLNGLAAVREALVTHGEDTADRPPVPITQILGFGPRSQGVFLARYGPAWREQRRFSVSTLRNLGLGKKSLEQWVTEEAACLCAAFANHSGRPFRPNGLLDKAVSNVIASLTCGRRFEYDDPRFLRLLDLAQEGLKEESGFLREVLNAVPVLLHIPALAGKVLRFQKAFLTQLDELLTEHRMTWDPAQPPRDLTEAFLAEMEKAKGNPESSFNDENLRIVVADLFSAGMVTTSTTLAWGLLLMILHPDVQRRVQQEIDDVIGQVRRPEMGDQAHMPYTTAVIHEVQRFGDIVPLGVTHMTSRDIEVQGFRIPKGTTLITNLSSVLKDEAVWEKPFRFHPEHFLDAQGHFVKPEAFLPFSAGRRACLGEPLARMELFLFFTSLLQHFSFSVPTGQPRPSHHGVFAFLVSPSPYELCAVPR

Compound | Ki (β1-adrenergic receptors) [µM] | Ki (β2-adrenergic receptors) [µM] | insulin levels relative to baseline during IVGTT, compared to vehicle treated rats (normal SD rats) | Kb (β2-ARs) [µM] | Kb (β1-ARs) [µM] | regional MAPD dispersion and PVBs or VT ([1]; 1-100 μM) | EC50 ([1]; paced at 1 Hz, read-out: EC50 to prolong LV MAPD90 (Apex)) [µM] | EC50 ([1]; paced at 1 Hz, read-out: EC50 to prolong LV MAPD90 (Base)) [µM] | induction of EADs, PVBs or VT ([1]; at any concentration) | maximal increase of apical MAPD90 above control ([1]; paced at 1 Hz, 30-100 μmol/L) | maximal increase of basal MAPD90 above control ([1]; paced at 1 Hz, 30-100 μmol/L) | IC50 (CYP2D6) [µM] | EC50 [1, 2] [µM] | maximal increase of MAPD90 ([1]; paced at 1 Hz, site not stated) [%]
COc1ccccc1OCC(O)CN1CCN(CC(=O)Nc2c(C)cccc2C)CC1 (racemic) [ranolazine, (±)-N-(2,6-dimethylphenyl)-4-[2-hydroxy-3-(2-methoxyphenoxy)propyl]-1-piperazine-acetamide] | 8.6 | 14.8 | higher | 12.2 | 9.7 | without increasing regional MAPD dispersion or eliciting premature ventricular beats (PVBs) or ventricular tachycardia (VT) | 4.8 | 4.3 | did not induce any EADs, PVBs or VT | 35±4% and 35.2±4.1% | 32±4% and 32.2±4.2% |  |  | 
COc1ccccc1OC[C@H](O)CN1CCN(CC(=O)Nc2c(C)cccc2C)CC1 [R-ranolazine, (R)-(+)-N-(2,6-dimethylphenyl)-4-[2-hydroxy-3-(2-methoxyphenoxy)-propyl]-1-piperazineacetamide] | > 100 | 39 | higher | > 50 | > 50 |  |  |  |  |  |  | 430 | 6.4 | 22±5
COc1ccccc1OC[C@@H](O)CN1CCN(CC(=O)Nc2c(C)cccc2C)CC1 [S-ranolazine, (S)-(−)-N-(2,6-dimethylphenyl)-4-[2-hydroxy-3-(2-methoxyphenoxy)-propyl]-1-piperazineacetamide] | 4.8 | 6.7 | not different from the vehicle treated rats | 9 | 8 |  |  |  |  |  |  | 130 | 5.9 | 28±4
